Results reported in PubChem BioAssay AID179 (DTP/NCI, 2004).
Activity calls are given as the source filed them.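 Rule for the calls: active = compounds giving half or more protection of infected cells from virus-caused growth loss, again on retest; inactive = the rest.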

System: CEM cells HIV-1 protection, formazan growth assay
Assay: NCI AIDS Antiviral Assay
Details: for IC50: measured here: growth of uninfected CEM cells
Method in brief: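 Five concentrations of each compound were applied to infected and uninfected human CEM cells. Protection from HIV-1 was judged from growth measured with a soluble formazan assay.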

Structure (SMILES)	EC50 [µM]	IC50 [µM]	outcome
CC(C)(C)OC(=O)NC(CCCCNC(=O)OCc1ccccc1)C(=O)NCCNc1ccc(NCCNC(=O)C(CCCCNC(=O)OCc2ccccc2)NC(=O)OC(C)(C)C)c2c1C(=O)c1ccccc1C2=O (stereo not drawn)	> 151	8.51	–
COc1ccc2nc3cc([N+](=O)[O-])ccc3c(NCCCCCN(C)C)c2c1	> 2	0.138	–
CC1=C(C(=O)NNC(=O)C(N)=O)CC(C(=O)NNC(=O)C(N)=O)=C(C)N1	> 200	> 200	–
O=c1onc2n1-c1ccc(Cl)cc1C(=S)N1CSCC21 (stereo not drawn)	> 200	32.4	–
CC(C)CCC[C@@H](C)C1CCC2[C@@H]3CC=C4C[C@@H](OC(=O)CCC(=O)O)CC[C@]4(C)C3CC[C@@]21C (stereo partly drawn)	–	–	inactive
O=C(Nc1ccc(Cl)cc1)NS(=O)(=O)c1c(-c2ccccc2)oc2ccccc2c1=O	–	–	inactive
CCC[CH2][Sn]1([CH2]CCC)[O]CC(Cc2ccccc2)[O]1 (stereo not drawn)	> 17	0.331	–
COc1cc(CC2C(O)C3CCN2CC3)cc(OC)c1OC (stereo not drawn)	–	–	inactive
CSCCCNC(=O)c1csc(-c2csc(C(CNC(=O)OC(C)(C)C)CNC(=O)OC(C)(C)C)n2)n1	> 200	22.4	–
Oc1ccc2c(c1)CCc1c-2n(CCN2CCOCC2)c2ccc(O)cc12	> 200	14.8	–
CN(C)CC1CCCCCCCCCC(CN(C)C)C1=O (stereo not drawn)	> 5.89	> 5.89	–
O=C1C2CCSCN2C(=O)N1c1ccccc1 (stereo not drawn)	> 40.7	> 40.7	–
C=C(C)C1CCC2(C)OC2C1 (stereo not drawn)	> 200	> 200	–
N/N=C(\C(=O)Nc1c(Cl)cc([N+](=O)[O-])cc1Cl)C(c1cnc2ccc([N+](=O)[O-])cc2n1)[N+](=O)[O-] (stereo not drawn)	> 70.8	> 70.8	–
O=c1n(CC2CS2)c2ccccc2n1CC1CS1 (stereo not drawn)	> 339	6.61	–
COC(=O)C(=O)Nc1cc2c3c(c1)Oc1cccc4c1C3(C)c1c(cccc1O2)O4	28.2	126	–
COc1ccc2c(c1O)-c1c(O)cccc1CCN(C)CC2	> 200	> 200	–
CCN1CCC(O)(c2ccc(Cl)c(Cl)c2)C(C(=O)c2ccc(Cl)c(Cl)c2)C1 (stereo not drawn)	> 67.6	38.9	–
Cn1nc(-c2ccccc2)c(N=[N+]=[N-])cc1=O	> 200	> 200	–
CCOC(=O)c1cn(CC)c(=O)n2c1nc1ccccc12	> 200	117	–
O=C(NNCC(O)COc1ccccc1)c1ccccc1 (stereo not drawn)	> 200	> 200	–
CCC1(CC=C(C)C)Oc2ccccc2-n2cccc2C1=O (stereo not drawn)	–	–	active

Structure (SMILES)	EC50 [µM]	IC50 [µM]	outcome
CCOC1NC(=O)NC(=O)C1(C)Cl (stereo not drawn)	> 200	> 200	–
S=C1OC2CCCC[C@H]2O1 (stereo partly drawn)	> 120	> 120	–
CNc1ccc(C)cc1S(=O)(=O)c1ccc(OC)cc1	> 200	95.5	–
Cc1ccc(C(=O)Nc2ccc(CP(=O)(O)O)cc2CP(=O)(O)O)cc1NC(=O)Nc1cc(C(=O)Nc2ccc(CP(=O)(O)O)cc2CP(=O)(O)O)ccc1C	> 200	> 200	–
COC(=O)c1ccc(OCc2ccc3oc(=O)c(-c4ccccc4)nc3c2)cc1	> 1.41	> 1.41	–
C#CC[N+](C)(CC#C)CC#C	–	–	inactive
COc1ccc(C2=C3c4cc(OC)c(OC)cc4CCN3C(=S)SS2)cc1OC	–	–	inactive
CCCCOC(=O)N[C@H]1CCc2cc(OC)c(OC)c(OC)c2-c2ccc(SC)c(=O)cc21	> 0.2	0.00407	–
CCn1c(SCC(=O)NNC(=S)Nc2ccc([N+](=O)[O-])cc2)nc2ccccc2c1=O	> 200	83.2	–
NC(=O)Cn1c(=O)[nH]c(=O)c2[nH]cnc21	> 174	> 174	–
COc1nc2c(nc(N)n2C2OC(CO)C(O)C(O)C2O)c(=O)n1C (stereo not drawn)	–	–	inactive
Cc1ccc(Nc2ccc3c4c(cc(=O)n3C)-c3ccccc3C(=O)c24)c(S(=O)(=O)O)c1	> 174	> 174	–
C1CNCCNCCN1	> 200	> 200	–
OCC1OC2(CCCC3CC32)O[C@H]1CO (stereo partly drawn)	–	–	inactive
O=C1CCC2C(O)c3cc4c(cc3C(c3ccc5c(c3)OCO5)N12)OCO4 (stereo not drawn)	> 200	> 200	–
CC(C)(C)NNC(=O)/C(=C/c1ccc([N+](=O)[O-])cc1)NC(=O)c1ccccc1	> 7.08	> 7.08	–
CC(C)Oc1nc(N2CCNCC2)nc2c1CCCC2	–	–	inactive
N[C@@H]1C[C@H](N)c2c(Cl)sc(Cl)c21	> 200	141	–
c1c[nH]c(C23C4C5C6C4C2C6C53)n1 (stereo not drawn)	> 200	> 200	–
CC(Cn1c2c(c3cc(O)ccc31)CCc1ccc(O)cc1-2)N(C)C (stereo not drawn)	> 200	12	–
Nc1ncnc2c1ncn2CC(=O)NCCCO	> 200	> 200	–
CC(C)C(Nc1c2ccccc2nc2ccccc12)C(=O)O (stereo not drawn)	–	–	inactive
